Assay results: US7598028B2, “Compositions and methods for detecting and treating prostate disorders” (The Regents of the University of Michigan, priority 2006, dated 2009)

Assays:
Assay type in all cases: cell-based, human
[1] = test system: N15C6 prostate epithelial cells; assay: Proliferation assay (cell counts), N15C6; details: add back of exogenous chemokine, 96 hours
Method: (§1) Proliferation assays. Cellular proliferation was assessed after plating cells at 50 000 cell/well in triplicate in six-well plates and counting cells after 24 and 96 h of incubation in complete media, serum-free media or serum-free prostate stromal fibroblast conditioned media, as described previously (Macoska J A, et al., (2004) Cancer Genet. Cytogenet. 154, 36-43; incorporated herein by reference in its entirety). Averages and standard deviations of cell number were calculated for each time point under each media condition. To assess the effects of exogenous CXCL12 on cellular proliferation, recombinant human SDF1 alpha/CXCL12 (R & D Systems, 350-NS) was added at the desired concentration in 1 mL SF HIE (or 1 mL SF HIE alone for control) to each well. The cells were counted at 24 and 96 h growth and re-fed at 48 and 72 h growth. Cell counts were normalized to 50 000 cells at 24 h to account for any plating discrepancies.
(§2) Proliferation Assays. Cellular proliferation was assessed after plating cells at 50,000 cell/well in triplicate in six well plates and counting cells after 24 and 96 hours of incubation as described previously (see, e.g., Macoska J A, et al., 2004 Cancer Genet. Cytogenet. 154, 36-43; incorporated herein by reference in its entirety). To assess the effects of exogenous CXCL12 on cellular proliferation, recombinant human SDF1 alpha/CXCL12 (R&D Systems, 350-NS) was added at the desired concentration in 1 ml SF HIE (or 1 ml SF HIE alone for control) to each well. The cells were re-fed at 48 and 72 hours growth and counted at 24 and 96 hours growth. Cell counts were normalized to 50,000 cells at 24 hours to account for any plating discrepancies. Averages and standard deviations of cell number were calculated for each time point under each media condition. Experiments utilizing U0126 were performed as above, except that cells were treated after plating for 2 hours with either DMSO (vehicle) or 5 uM U0126 before addition of CXCL12. Cells were maintained in media containing DMSO or U0126 for the entirety of the experiment. For the antibody blockade experiments, cells were plated at 10,000 cells per well in triplicate in 24 well dishes and pre-incubated with mouse IgG2aκ (BD Pharmingen 555571) or mouse anti-CXCR4 (BD Pharmingen 555971) at 1 ug/ml for 1 hour prior to CXCL12 addition. Cells were maintained in media containing appropriate antibodies for the entirety of the experiment, and cells were counted at 24 and 96 hours as above.
(§3) Proliferation Assays. Cellular proliferation was assessed after plating cells at 50,000 cell/well in triplicate in six well plates and counting cells after 24 and 96 hours of incubation as described previously (see, e.g., Begley L, et al., Genes Chromosomes Cancer. 2006 February; 45(2): 136-46; herein incorporated by reference in its entirety). To assess the effects of exogenous CXCL5 on cellular proliferation, recombinant human CXCL5 (R&D Systems, 254-X) was added at the desired concentration in 2 ml SF media (or 2 ml SF media alone for control) to each well. The cells were re-fed at 24 hours growth and counted at 24 and 96 hours growth. Cell counts were normalized to 50,000 cells at 24 hours to account for any plating discrepancies. Averages and standard deviations of cell number were calculated for each time point under each media condition. For the antibody blockade experiments, 10,000 cells per well were plated in triplicate in 24 well dishes and preincubated with mouse anti-human CXCR2 (Biosource AHR1532X) or mouse antihuman CXCR4 (BD Pharmingen 555971) at 1 ug/ml for 1 hour prior to CXCL5 addition. Cells were maintained in media containing appropriate antibodies for the entirety of the experiment and were counted at 24 and 96 hours as above.

[2] = test system: LNCaP prostate epithelial cells; assay: Proliferation assay (cell counts), LNCaP; details: add back of exogenous chemokine, 96 hours
Method: as §1, §2, §3

[3] = test system: N1 prostate fibroblast cells; assay: Proliferation assay, add back, N1 fibroblasts; details: add back of exogenous chemokine, 96 hours
Description: FIG. 6C describes how CXCL1, CXCL5, CXCL6, and CXCL12 stimulate N15C6 prostate epithelial cell proliferation, N1 prostate fibroblast cell proliferation, and LNCaP prostate epithelial cell proliferation compared to serum-free (SF HIE) media alone. “Add back” assays were next performed to determine whether the addition of exogenous CXCL1, CXCL5, CXCL6, and CXCL12 to defined, serum-free media induced […] or LNCaP prostate epithelial or N1 fibroblast cell proliferation. For these and all experiments utilizing N15C6 and LNCaP cells, the N15C6 and N1 cells were used between passage 35-45, and LNCaP cells between passages 25-35, for consistency. All recombinant CXC proteins were obtained from R&D systems (e.g., CXCL1, #275-GR, CXCL5, #254-X; CXCL6, #333-GC, and SDF1 alpha/CXCL12, #350-NS). Cells were plated at 50,000 cells/well in triplicate, treated for 96 hours, and counted. […] Moreover, the concentrations for CXCL1, CXCL5, CXCL6 and CXCL12 observed to be growth-stimulatory for prostate epithelial cells were similar to those secreted into the media by older prostate stromal fibroblasts (see, e.g., FIGS. 6A and 6B).

ERK ½ = assay: Western blot, ERK phosphorylation in LNCaP cells; details: 100 ng/ml EGF or 50 μM CXCL12 (FIG. 19C)
Method: Western Blot Analysis. Cells were lysed, proteins resolved by electrophoresis, and electroblotting was carried out as described previously (see, e.g.; Chaib H, et al., 2001 Cancer Res. 61, 2390-2394; incorporated herein by reference in its entirety). Proteins were detected using antibodies against phospho-ERK½ (Cell Signaling #9101), total ERK½ (Cell Signaling #9102), CXCR4 (Abcam #ab2074), Elk-1 (Cell Signaling #9182), Phospho Elk-1 (Cell Signaling #9181), or beta-actin (Santa Cruz #sc-1615), in conjunction with an ECL detection system.
Western Blot and Protein Analysis. Cells were lysed, proteins resolved by electrophoresis, and electroblotting was carried out as described previously except that 20 ug protein was electrophoresed per gel lane for N15C6 cells and 100 ug protein for LNCaP cells (see, e.g., Begley L, et al., Aging Cell. 2005 December; 4(6):291-8; Begley L A, et al., J Biol. Chem. 2007 Sep. 14; 282(37):26767-74; each herein incorporated by reference in their entireties). Proteins were detected using antibodies against phospho-ERK½ (Cell Signaling #9101), total ERK½ (Cell Signaling, #9102), phospho-p65, (Rockland #100-401-264), total p65 (Rockland #100-4165), STAT3 (9139), phospho-STAT3 (9138), beta-actin (Santa Cruz #sc-1615), or tubulin (Upstate, #DM1A) in conjunction with an ECL detection system. Secondary antibodies included goat anti-rabbit (Cell Signaling, #7074) and goat anti-mouse (Santa Cruz, #SC-2005), and both were used at a 1:5000 concentration. Immunoblots shown are representative of triplicate experiments. Densitometric quantitation of immunoblot films was accomplished by scanning the original films and converting the .tiff files to grayscale. Images were inverted, and mean band intensities were measured using ImageJ (www, followed by, .nih.gov). The mean intensity of adjacent background was also measured for each band and subtracted from band intensity.

N15C6 cells = assay: Migratory/invasive response to CXCL5, N15C6 (contemplated); details: 2 hours pre-treatment: 100 nM wortmannin, 20 uM LY294002a or 10 mM tyrphostin A9
Method: (§4) PC3 cells invaded through Matrigel in response to both CXCL5 and CXCL12. In experiments conducted during the development of embodiments for the present invention, the effect for CXCL12 was abrogated when the cells were pre-treated with antibody against the CXCR4 receptor but not when the cells were treated with the IgG isotype control. […] It is contemplated that PI3K-mediated FAK activation is involved in CXCL5-stimulated epithelial cell migration. Protein purified from cells exposed to CXCL5 using Western blot analysis and antibodies to FAK, Crk, p130Cas, and the phospho-forms of these proteins will be examined. It is contemplated that PI3K signaling involvement in the migratory/invasive response to cytokine stimulation by CXCL5 occurs through, for example, phosphorylation of FAK, Crk and p130Cas. It is contemplated that inhibition of downstream PI3K signaling abrogates the migratory/invasive response of CXCL5. For example, it is contemplated that N15C6 or LNCaP cells pre-treated with PI3K inhibitors (e.g., 100 nM wortmannin or 20 uM LY294002a) or 10 mM of the RAFTK/Pyk2 inhibitor tyrphostin A9 for 2 hours, then exposed to CXCL5 previously shown to stimulate the migratory/invasive response, for 2 hours, abroagates the migratory/invasive response of CXCL5.

LNCaP cells = assay: Migratory/invasive response to CXCL5, LNCaP (contemplated); details: 2 hours pre-treatment: 100 nM wortmannin, 20 uM LY294002a or 10 mM tyrphostin A9
Method: as §4

Molecule	cell proliferation compared to serum-free (SF HIE) media alone [1]	cell proliferation compared to serum-free (SF HIE) media alone [2]	cell proliferation compared to serum-free (SF HIE) media alone [3]	ERK phosphorylation (pERK) (ERK ½)	effect on migratory/invasive response of CXCL5 (contemplated) (N15C6 cells)	effect on migratory/invasive response of CXCL5 (contemplated) (LNCaP cells)
CXCL1: recombinant CXC protein from R&D systems, #275-GR	stimulate	stimulate	stimulate			
CXCL6: recombinant CXC protein from R&D systems, #333-GC	stimulate	stimulate	stimulate			
EGF: epidermal growth factor, used at 100 ng/ml				minimal		
CC(C)(C)c1cc(C=C(C#N)C#N)cc(C(C)(C)C)c1O [tyrphostin A9]					abroagates	abroagates
O=c1cc(N2CCOCC2)oc2c(-c3ccccc3)cccc12 [LY294002a]					abroagates	abroagates
